Results on nine molecules are retold here after US8097626B2, “IL-8 receptor antagonists” (GlaxoSmithKline LLC, priority 2006, dated 2012).

This assay concerns GROα-induced expression of the integrin CD11b on neutrophils in human whole blood. Nature of the assay: CD11b human whole blood assay. It is filed as cell-based. The following applies: Neutrophil, 10 nM GROα. On the procedure:
The compounds indicated were tested for their ability to inhibit the GROα-induced expression of the integrin CD11b on neutrophils in human whole blood.
Blood was drawn (9 ml) using a butterfly line and a 10 ml syringe containing 0.2 ml of working Sodium Heparin. The blood was kept at 37° C. until placed on ice in step 5 below. Compound stock solutions were then diluted to 12 times the maximum final concentration, 120 uM. Half Log serial dilutions were then performed in vehicle. Ten microliters of the compound dilutions or vehicle were then added to the appropriate 12×75 polypropylene tubes. One hundred microliters of whole blood was added per tube and incubated for 10 minutes, in a 37° C. water bath with initial (gentle) agitation and again at 5 minutes. The GROα stock was diluted 1:166.66 in 0.1% BSA-DPBS to “12×” concentration of 120 nM and 10 ul of the GROα dilution or 01% BSA-DPBS was added to the appropriate tubes so that the final GROα concentration equaled 10 nM. The tubes were incubated for 10 min at 37° C. with gentle hand agitation and again at 5 minutes. Samples were then placed on ice and 250 ul of ice cold CellFix working dilution was added followed by a one minute incubation on ice. 1.5 ml Eppendorf tubes were readied during GROα incubation by adding the appropriate antibodies. Every tube received 10 ul of CD11b-FITC and 5 ul of CD16-PE, except for the isotype control which received 10 ul of IgG2a-FITC instead of CD11b. Addition of 50 ul of the fixed blood from each tube was added to the appropriate Eppendorf tube. Samples were allowed to then incubate for 20 min at 4° C. in the dark. Addition of the blood/antibody mixtures to 500 ul of cold DPBS were added to the appropriately labeled 12×75 polystyrene tube. The resulting mixture was kept on ice. LDS stock (10 ul) was added and the mixture was incubated for 10 min at 4° C. before flow analysis. Samples were kept in a darkened environment. The LDS addition was staggered as the samples were collected on the flow cytometer so that all samples were run ˜10-20 minutes post-LDS addition.
Medium flow rate was used for flow collection and FL3 threshold increased to eliminate red blood cells from analysis using the LDS signal. The color compensation was properly set using unlabeled samples and one-color samples to subtract LDS spill into PE and the PE spill into FITC and FITC into PE. For the BD LSR cytometer, LDS=FL3, PE=FL2, FITC=FL1. A minimum of 2000-3000 events that satisfy the granulocyte gate by SSC vs. FSC and were CD16 positive by the FL2 signal were collected.

[1] abbreviates: activity threshold, read-out: IC50, inhibition of GROα-induced CD11b expression on neutrophils.
Setting [2] is: from about 3 uM to about 0.7 uM, read-out: IC50, inhibition of GROα-induced CD11b expression on neutrophils (span of the tested compounds).

pIC50: −log10 of the molar value. Where two headings read alike, the source gives them in different places.

Consider `O=C(Nc1ccc(Cl)c(S(=O)(=O)N2CC3CC2CN3)c1O)Nc1cccc(F)c1Cl` (racemic) [Example 23, (+/−)-N-[4-chloro-3-(2,5-diazabicyclo[2.2.1]hept-2-ylsulfonyl)-2-hydroxyphenyl]-N′-(2-chloro-3-fluorophenyl)urea], for which the pIC50 runs as follows: under setting [1], > 5.30; under setting [2], 5.52 to 6.15.
Taken in the same sequence, the figures for `CCc1ccccc1NC(=O)Nc1ccc(Cl)c(S(=O)(=O)N2C[C@H]3C[C@@H]2CN3)c1O` (stereo in doubt) [Example 12, N-{4-chloro-3-[(1R,4R)-2,5-diazabicyclo[2.2.1]hept-2-ylsulfonyl]-2-hydroxyphenyl}-N′-(2-ethylphenyl)urea] were > 5.30 and 5.52 to 6.15.
As for `O=C(Nc1ccc(Cl)c(S(=O)(=O)N2C3CC[C@H]2CNC3)c1O)Nc1cccc(F)c1Cl` (stereo in doubt) [Example 45, N-{4-chloro-3-[(1S,5S)-3,8-diazabicyclo[3.2.1]oct-8-ylsulfonyl]-2-hydroxyphenyl}-N′-(2-chloro-3-fluorophenyl)urea], the pIC50 is > 5.30 under setting [1] and 5.52 to 6.15 under setting [2].
In the same order, the values of `O=C(Nc1ccc(Cl)c(S(=O)(=O)N2C[C@@H]3C[C@H]2CN3)c1O)Nc1cccc(F)c1Cl` [Example 1, N-[4-chloro-3-[(1S,4S)-2,5-diazabicyclo[2.2.1]hept-2-ylsulfonyl]-2-hydroxyphenyl]-N′-(2-chloro-3-fluorophenyl)urea] are > 5.30 and 5.52 to 6.15.
In the same order, the values of `O=C(Nc1ccc(Cl)c(S(=O)(=O)N2C[C@@H]3C[C@H]2CN3CC2CC2)c1O)Nc1cccc(F)c1Cl` [Example 2, N-(4-chloro-3-{[(1S,4S)-5-(cyclopropylmethyl)-2,5-diazabicyclo[2.2.1]hept-2-yl]sulfonyl}-2-hydroxyphenyl)-N′-(2-chloro-3-fluorophenyl)urea] are > 5.30 and 5.52 to 6.15.
In the same order, the values of `O=C(Nc1cccnc1Cl)Nc1ccc(Cl)c(S(=O)(=O)N2CCn3ccnc3C2)c1O` [Example 3, N-[4-chloro-3-(5,6-dihydroimidazo[1,2-a]pyrazin-7(8H)-ylsulfonyl)-2-hydroxyphenyl]-N′-(2-chloro-3-pyridinyl)urea] are > 5.30 and 5.52 to 6.15.
Regarding `Cc1c(F)cccc1NC(=O)Nc1ccc(Cl)c(S(=O)(=O)N2C[C@H]3CC[C@@H](C2)N3)c1O` [Example 17, N-[4-chloro-3-(3,8-diazabicyclo[3.2.1]oct-3-ylsulfonyl)-2-hydroxyphenyl]-N′-(3-fluoro-2-methylphenyl)urea], the negative logarithm of the IC50 (pIC50) reads like this: under setting [1], > 5.30; under setting [2], 5.52 to 6.15.
In the same order, the values of `O=C(Nc1ccccc1Oc1ccccc1)Nc1ccc(Cl)c(S(=O)(=O)N2C[C@H]3CC[C@@H](C2)N3)c1O` [Example 18, N-[4-chloro-3-(3,8-diazabicyclo[3.2.1]oct-3-ylsulfonyl)-2-hydroxyphenyl]-N′-[2-(phenyloxy)phenyl]urea] are > 5.30 and 5.52 to 6.15.
On to `O=C1C[C@H]2CC[C@@H](C1)N2S(=O)(=O)c1c(Cl)ccc(NC(=O)Nc2cccc3c2OC(F)(F)O3)c1O` [Example 26, N-(4-chloro-2-hydroxy-3-{[(1R,5S)-3-oxo-8-azabicyclo[3.2.1]oct-8-yl]sulfonyl}phenyl)-N′-(2,2-difluoro-1,3-benzodioxol-4-yl)urea], for which the negative logarithm of the IC50 (pIC50) runs as follows: under setting [1], > 5.30; under setting [2], 5.52 to 6.15.
